# Measurements as given in patent US20190175691A1, “METHODS FOR DETECTING AND MODULATING THE EMBRYONIC-FETAL TRANSITION IN MAMMALIAN SPECIES” (BioTime, Inc., priority 2016, published 2019).
# Starred links: 1 amine or outer side, 2 acyl side, 3 side chain; linkers in the order of their positions; H or OH if unused. Positions of bridges follow the written chain, without caps; N, C: chain ends. Non-standard residues stand in square brackets, D forms with d. Residues, ends and D or L forms follow the SMILES beside them. Chains are numbered I, II in the order given. Actinocin(9to1) = Cc1c2oc3c(C)ccc(C(=O)[*:1])c3nc-2c(C(=O)[*:2])c(N)c1=O; NMeV = CN[C@H](C(=O)O)C(C)C; Sar = CNCC(=O)O
# B1: AMH: anti-Mullerian hormone (AMH), secreted protein iTR factor (protein, UniProt P03971 452-560, looked up)
# Muellerian-inhibiting factor: SAGATAADGPCALRELSVDLRAERSVLIPETYQANNCQGVCGWPQSDRNPRYGNHVVLLLKMQVRGAALARPPCCVPTAYAGKLLISLSEERISAHHVPNMVATECGCR
# Test system: COX7A1 transcript
# Test: Screen for iTR factors: reduction of COX7A1 transcript in cancer cell lines
# Type: cell-based
# Conditions: Lung (A549), breast (MCF7), and prostate (PC3) cancer cell lines
# Text: Values under cell lines represent proportional decreased values for COX7A1 transcript in the cell line.
# Lung (A549), breast (MCF7), and prostate (PC3) cancer cell lines were exposed to diverse factors including biologically active small molecules as well as RNAi directed to specific genes and the relative reduction of levels of COX7A1 transcript was used as a marker of iTR.
row,Molecule,COX7A1 expression (relative reduction of COX7A1 transcript as marker of iTR)
1,CCn1cc(-c2ccnc3[nH]c(-c4cccc(CN(C)C)c4)cc23)c(-c2ccc(NC(=O)N(C)C)cc2)n1 [GSK1070916],reduce COX7A1 expression
2,O=C(O)[C@]1(Cc2cccc(Nc3nccs3)n2)CC[C@@H](Oc2cccc(Cl)c2F)CC1 [MK-5108],reduce COX7A1 expression
3,CO[C@H]1/C=C\C=C(/C)C(=O)NC2=CC(=O)C(NCCN(C)C)=C(C[C@@H](C)C[C@H](OC)[C@H](O)[C@@H](C)/C=C(\C)[C@@H]1OC(N)=O)C2=O [alvespimycin],reduce COX7A1 expression
4,COc1cc(/C=C/C(=O)CC(=O)/C=C/c2ccc(O)c(OC)c2)ccc1O [curcumin],reduce COX7A1 expression
5,C[C@@H]1C[C@H]2O[C@@H]2/C=C\C=C\C(=O)Cc2c(Cl)c(O)cc(O)c2C(=O)O1 [radicocol],reduce COX7A1 expression

# Test system: umbilical cord-derived MSCs (MSCwj) and adult skin fibroblasts (MDW)
# Test: Percent confluency after 80 hours with secreted GFER
# Type: cell-based
# Conditions: secreted GFER 0, 10.0 and 100 ng/mL, DMEM 10% FBS
# Experimental: (§1) The fibroblast line MDW (passage 5) is seeded in multiple wells of a 6 well plate and cultured to confluence. A 1.5 mm “scratch” was introduced onto the monolayer using a 200 ul pipette tip, thereby denuding the fibroblasts from the culture surface. Factors including 0.5 mM valproic acid, 10 ng/mL AMH, and 20 ng/mL GFER are added to the growth medium which as DMEM medium supplemented with 10% FBS. 24 hours later, the % of the denuded surface was determined by phase contrast microscopy. […] Due to the lability and diffusion of the factors when administered in vivo, the formulation of the factors alone or in combination in a hydrogel such as crosslinked hyaluronic acid or crosslinked hyaluronic acid and collagen provides a preferred method of delivering the factors to increase tissue regeneration in animals. Alternatively, umbilical cord-derived MSCs (MSCwj) and adult skin fibroblasts (MDW) each of which express fetal/adult markers such as COX7A1 are treated with the secreted form of GFER alone at concentrations of 0, 10.0 and 100 ng/mL in DMEM medium supplemented with 10% FBS an AMH
# d cultured for 80 hours and the % confluency is determined.
row,Molecule,confluency achieved
1,"GFER: GFER (Augmenter of Liver Regeneration (ALR)), secreted protein iTR factor",dose-dependent increase in confluency

# Test system: COX7A1 transcript
# Test: Screen for iCM factors: increase of COX7A1 transcript in cancer cell lines
# Type: cell-based
# Conditions: Lung (A549), breast (MCF7), and prostate (PC3) cancer cell lines
# Text: Lung (A549), breast (MCF7), and prostate (PC3) cancer cell lines were exposed to diverse factors including biologically active small molecules as well as RNAi directed to specific genes and the relative increase in levels of COX7A1 transcript was used as a marker of iCM.
row,Molecule,COX7A1 expression (relative increase of COX7A1 transcript as marker of iCM)
1,CC[C@@H]1C(=O)N(C)c2cnc(Nc3ccc(C(=O)NC4CCN(C)CC4)cc3OC)nc2N1C1CCCC1 [BI 2536],increased COX7A1 expression
2,CCc1c2c(nc3ccc(O)cc13)-c1cc3c(c(=O)n1C2)COC(=O)[C@]3(O)CC [SN-38],increased COX7A1 expression
3,CN1CC[C@H](c2c(O)cc(O)c3c(=O)cc(-c4ccccc4Cl)oc23)[C@H](O)C1 [alvocidib],increased COX7A1 expression
4,CC1(C)[C@@H](OC(=O)CCC(=O)O)CC[C@]2(C)[C@H]3C(=O)C=C4[C@@H]5C[C@@](C)(C(=O)O)CC[C@]5(C)CC[C@@]4(C)[C@]3(C)CC[C@@H]12 [carbenoxolone],increased COX7A1 expression
5,"Cc1c2oc3c(C)ccc(C(=O)N[C@@H]4C(=O)N[C@H](C(C)C)C(=O)N5CCC[C@H]5C(=O)N(C)CC(=O)N(C)[C@@H](C(C)C)C(=O)O[C@@H]4C)c3nc-2c(C(=O)N[C@@H]2C(=O)N[C@H](C(C)C)C(=O)N3CCC[C@H]3C(=O)N(C)CC(=O)N(C)[C@@H](C(C)C)C(=O)O[C@@H]2C)c(N)c1=O [dactinomycin] (I: T[dV]P[Sar][NMeV] / II: T[dV]P[Sar][NMeV]; ester I:1-I:C, II:1-II:C; linker I:N-II:N via Actinocin(9to1))",increased COX7A1 expression
6,COc1cccc2c1C(=O)c1c(O)c3c(c(O)c1C2=O)C[C@@](O)(C(C)=O)C[C@@H]3O[C@H]1C[C@H](N)[C@H](O)[C@H](C)O1 [daunorubicin],increased COX7A1 expression
7,COc1cccc2c1C(=O)c1c(O)c3c(c(O)c1C2=O)C[C@@](O)(C(=O)CO)C[C@@H]3O[C@H]1C[C@H](N)[C@H](O)[C@H](C)O1 [doxorubicin],increased COX7A1 expression
8,Cc1onc(-c2c(F)cccc2Cl)c1C(=O)N[C@@H]1C(=O)N2[C@@H]1SC(C)(C)[C@@H]2C(=O)O [flucloxacillin],increased COX7A1 expression
9,COc1cc2ncnc(Nc3ccc(F)c(Cl)c3)c2cc1OCCCN1CCOCC1 [gefitinib],increased COX7A1 expression
10,CCN(CC)Cc1ccc2cc(COC(=O)Nc3ccc(C(=O)NO)cc3)ccc2c1 [givinostat],increased COX7A1 expression
11,O=C1c2c(O)ccc(O)c2C(=O)c2c(NCCNCCO)ccc(NCCNCCO)c21 [mitoxantrone],increased COX7A1 expression
12,CN[C@@H]1C[C@H]2O[C@@](C)([C@@H]1OC)n1c3ccccc3c3c4c(c5c6ccccc6n2c5c31)C(=O)NC4 [staurosporine],increased COX7A1 expression
13,COc1cc([S+](C)[O-])ccc1-c1nc2ncccc2[nH]1 (stereo not shown) [sulmazole],increased COX7A1 expression
14,COc1cc([C@@H]2c3cc4c(cc3[C@@H](O[C@@H]3O[C@@H]5CO[C@@H](c6cccs6)O[C@H]5[C@H](O)[C@H]3O)[C@H]3COC(=O)[C@H]23)OCO4)cc(OC)c1O [teniposide],increased COX7A1 expression
15,CC(/C=C/C(=O)NO)=C\[C@@H](C)C(=O)c1ccc(N(C)C)cc1 [trichostatin-A],increased COX7A1 expression
16,CC(C)[C@]12O[C@H]1[C@@H]1O[C@]13[C@]1(O[C@H]1C[C@H]1C4=C(CC[C@@]13C)C(=O)OC4)[C@@H]2O [triptolide],increased COX7A1 expression
17,calyculin,increased COX7A1 expression

# Test system: adult-derived MDW fibroblasts
# Test: Scratch test on confluent MDW fibroblast monolayer
# Type: cell-based
# Conditions: MDW passage 5, 1.5 mm scratch, 24 hours; 0.5 mM valproic acid, 10 ng/mL AMH, 20 ng/mL GFER; control 20%
# Experimental: The identification of the secreted protein iTR factors GFER and AMH as well as the agent valproic acid, provides a novel cocktail of factors to generate iTR in vitro as well as in vivo. To determine the effects of the factors, cultured adult-derived MDW fibroblasts as well as umbilical cord-derived MSCs (MSCwj) were treated with varying concentrations of the factors and the rate of growth and regrowth following a scratch test are performed.
# as §1
row,Molecule,regeneration (coverage of the denuded wounded zone)
1,CCCC(CCC)C(=O)O [valproic acid],25%
2,"GFER: GFER (Augmenter of Liver Regeneration (ALR)), secreted protein iTR factor",28%
3,B1,68%

# Test system: MDW adult-derived skin fibroblasts
# Test: Illumina bead array expression of COX7A1 and COL1A1 in MDW fibroblasts
# Type: cell-based
# Conditions: MDW passage 6-7, 6 days, mRNA for cMYC or SOX2 + 0.5 mM valproic acid
Molecule,expression of COX7A1,expression of the fibrosis marker COL1A1
CCCC(CCC)C(=O)O [valproic acid],reduced expression of COX7A1,decreased expression of the fibrosis marker COL1A1
